US7410995B1, “N-linked sulfonamide of heterocyclic thioesters for vision and memory disorders” (GPI Nil Holdings Inc., priority 1998, dated 2008)
pKi: −log10 of the molar value. Entries after “also recorded” stand apart in the source; their conditions may differ.

What was measured:
FKBP12 = FKBP12 (Homo sapiens, UniProt P62942); test: Ki test procedure: inhibition of peptidyl-prolyl isomerase (rotamase) activity, chymotrypsin-coupled assay; format: biochemical; details: Table V comments; read-out: Ki rotomase
Sequence of FKBP12 (P62942 whole entry, species assumed): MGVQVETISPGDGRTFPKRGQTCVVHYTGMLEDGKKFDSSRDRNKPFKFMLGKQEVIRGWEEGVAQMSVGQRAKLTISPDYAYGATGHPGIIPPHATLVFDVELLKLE
Description: The inhibition of the prolyl peptidyl cis-trans isomerase activity of FKBP may be measured as an indicator of this affinity. Inhibition of the peptidyl-prolyl isomerase (rotamase) activity of the compounds used in the inventive methods and pharmaceutical compositions can be evaluated by known methods described in the literature (Harding et al., Nature, 1989, 341:758-760; Holt et al. J. Am. Chem. Soc., 115:9923-9938). […] The inhibition of this reaction caused by the addition of different concentrations of inhibitor is determined, and the data is analyzed as a change in first-order rate constant as a function of inhibitor concentration to yield the apparent Ki values. […] The reaction is initiated by the addition of […] of substrate (succinyl-[…]-nitroanilide, 5 mg/mL in 2.35 mM LiCl in trifluoroethanol). The absorbance at 390 nm versus time is monitored for 90 seconds using a spectrophotometer and the rate constants are determined from the absorbance versus time data files.

[1] = test system: retinal ganglion cell axons; test: Protection of retinal ganglion cell axons from degeneration following optic nerve transection (Table V); format: in vivo; details: ± SEM
Description: Efficacy of representative compounds from different immunophilin ligand series in protecting retinal ganglion cell axons from degeneration following optic nerve transection is set forth in Table V.

[2] = Clearance (Table V comments); format: in vitro ADME
[3] = test system: retinal ganglion cells and optic nerve axons; test: In vivo retinal ganglion cell and optic nerve axon tests after optic nerve transection (Example 6, Table 1); set-up: species or system Sprague Dawley rats; details: for Proximal optic nerve myelin basic protein Density: SEM, % areal coverage of optic nerve cross section; for increased ON axon density: adjusted for optic nerve diameter; for Distal optic nerve stump shrinkage: cross sectional area compared to sham control; for Distal optic nerve myelin basic protein Density: cross sectional area multiplied by myelin density
Description: All eyes and optic nerves stumps were removed.

retinal ganglion cells [4] = test: Retinal ganglion cell survival and axonal dying back following optic nerve transection (Example 17); format: in vivo, Sprague Dawley rats; details: GPI-1046 10 mg/kg/day s.c. for 28 days
Description: Transection of the mammalian optic nerve results in a brief period of abortive regeneration, but the majority of axotomized neurons die and the axons from many persisting ganglion cells die back beyond the optic nerve head.

retinal ganglion cells [5] = test: Retinal ischemia: retinal ganglion cell, optic nerve axon and myelin degeneration (FIGS. 1, 2); format: in vivo, rats
Description: Retinal ganglion cells were retrogradely labeled in adult rats by bilateral injection of fluorogold in their lateral geniculate nuclei. Labeled ganglion cells in the normal rat retina appear as white profiles against the dark background (FIG. 1A). Complete retinal ischemia was produced by infusing normal saline solution into the retinal vitreous cavity of each eye until the intraocular pressure exceeded arterial blood pressure. 28 days after the ischemic episode extensive degeneration of retinal ganglion cell was evidenced by massive reduction in the density of fluorogold labeled cells (FIG. 1B). […] FIG. 2. […] Optic nerves from vehicle treated cases examined 28 days after a 1 hour retinal ischemic episode are characterized by a decreased density of optic nerve axons and the appearance of numerous degenerating myelin figures (bright white filled circles). […] FIG. 3. […] Few spared fluorogold pre labeled ganglion cells are present in vehicle treated cases (large white figures) among a population of small microglia that digest the debris of the degenerating cells and take up the fluorogold label (FIG. 3A). […] FIG. 4. […] 90 days after transection few ganglion cell axons remain within the optic nerve (FIG. 4B), representing only 5.6% of the normal population. The loss of axons reflects both the death of retinal ganglion cells and the regression or “dying back” of the axons of ˜70% of the small surviving ganglion cell population into the retina itself (Table 1). […] FIG. 5. […] FIG. 6. […] 90 days after transection extensive degeneration of myelin is evident in vehicle treated cases, characterized by the loss of fascicular organization and the appearance of numerous large dense degenerating myelin figures (FIG. 6B, upper right). […] FIG. 7. FKBP-12 immunohistochemistry labels oligodendroglia (large dark cells with fibrous processes), the cells which produce myelin, located between the fascicles of optic nerve fibers, and also some optic nerve axons. FIG. 8. […]

retina = test: Streptozotocin induced diabetes: retinal neovascularization and neuron loss (FIG. 9); format: in vivo
[6] = Peripheral sensory neuropathy in streptozotocin-induced diabetic rat, hot plate and tail flick (Example 18); format: in vivo, Wistar rats; details: lesioned animals treated for 6 weeks at 10 mg/kg s.c.
Procedure: The procedure involved using Male Wistar rats which were given a single injection of streptozotocin (65 mg/kg i.v.). Blood glucose levels were determined weekly for the first three weeks and on the last week of the experiment. Animals were evaluated weekly for signs of sensory neuropathy using the conventional hot plate and tail flick apparatus test procedures.

[7] = Morris watermaze spatial learning and memory in aged rodents (Example 19); format: in vivo, C57BL/6N-Nia mice; details: aged impaired mice, daily 10 mg/kg GPI-1046, retention testing after 3 weeks of dosing; listed as GPT-1046, 10 mg/kg
Description: In all of these tasks, a proportion of aged rats or mice perform as well as the vast majority of young control animals, while other animals display severe impairments in memory function compared to young animals. […] Specifically, rodent spatial learning and memory decline during aging has been accepted by many investigators as an intriguing correlative animal model of human senile dementia. Cholinergic function in the hippocampus has been extensively studied as a component of spatial learning in rodents, and declining hippocampal cholinergic function has been noted in parallel with the development of learning and memory impairments. […] Also, reports on age-related deficits of hippocampal long-term potentiation (LTP)-induction, a reduction in theta rhythm frequency, a loss of experience-dependent plasticity of hippocampal place-units, and reductions in hippocampal protein kinase C are in keeping with the concept that no single underlying pathology can be identified as the cause of age-related behavioral impairment in rodents. However, the various experimental therapeutic approaches that have been undertaken to improve memory function in aged rodents have been somewhat slanted towards the cholinergic hypothesis. The Morris watermaze is widely used for assessing spatial memory formation and retention in experimental animals. […]

## CCC(C)(C)C(=O)C(=O)N1CCC[C@H]1C(=O)O [L]
FKBP12
  pKi: < 5.11
[1]
  RT 97 RGC axon density 14 days after ON transection: 7.8% ± 3.0% SEM

## CCC(C)(C)C(=O)C(=O)N1CCC[C@H]1C(=O)SCCC(c1ccccc1)c1ccccc1 [M]
[1]
  RT 97 RGC axon density 14 days after ON transection: −6.3% ± 3.9% SEM

## CCC(C)(C)C(=O)C(=O)N1CCCC[C@H]1C(=O)O [G]
[1]
  RT 97 RGC axon density 14 days after ON transection: 34.0% ± 4.8% SEM

## 3-(3-pyridyl)-1-propyl (2s)-1-(3,3-dimethyl-1,2-dioxopentyl)-2-pyrrolidinecarboxylate [GPI 1046]
FKBP12
  pKi: 8.12
[2]
  Clearance: 3.5 µL/min
[1]
  RT 97 RGC axon density 14 days after ON transection: 60.5% ± 3.9 SEM

## O=C(OCCCc1cccnc1)[C@@H]1CCCN1C(=S)NC1CCCCC1 [I]
[1]
  RT 97 RGC axon density 14 days after ON transection: 23.8% ± 5.3% SEM

## CCC(C)(C)C(=O)C(=O)N1CCCCC1C(=O)OC(CCc1ccccc1)CCc1ccccc1 (centres unmarked) [E]
[2]
  Clearance: 41.8 µL/min

## O=C(SCCCc1ccccc1)[C@@H]1CCCN1C(=O)NC12CCC(CC1)C2 [B]
FKBP12
  pKi: 6.83
[1]
  RT 97 RGC axon density 14 days after ON transection: 100.0% ± 5.2% SEM

## CCC(C)(C)C(=O)C(=O)N1CCCC[C@H]1C(N)=O [H]
[1]
  RT 97 RGC axon density 14 days after ON transection: 30.3% ± 8.0% SEM

## CCC(C)(C)C(=O)C(=O)N1CCC[C@H]1C(=O)CCCCc1cccnc1 [J]
[1]
  RT 97 RGC axon density 14 days after ON transection: 15.8% ± 4.8% SEM

## CCC(C)(C)C(=O)C(=O)N1CCCC[C@H]1C(=O)SCCC(c1ccccc1)c1ccccc1 [Compound K]
[1]
  RT 97 RGC axon density 14 days after ON transection: 13.0% ± 4.2% SEM

## CCC(C)(C)C(=O)C(=O)N1CCS[C@@H]1C(=O)OCCCc1cccnc1 [F]
[1]
  RT 97 RGC axon density 14 days after ON transection: 55.1% ± 5.9% SEM

## O=C(SCCCc1ccccc1)[C@@H]1CCCN1S(=O)(=O)Cc1ccccc1 [C]
[1]
  RT 97 RGC axon density 14 days after ON transection: 60.4% ± 3.1% SEM

## CCC(C)(C)C(=O)C(=O)N1CCC[C@H]1C(=O)OCCCc1cccnc1 [GPI 1046, 3-(3-pyridyl)-1-propyl (2s)-1-(3,3-dimethyl-1,2-dioxopentyl)-2-pyrrolidinecarboxylate]
[3]; GPI 1046 for the first 14 days after transection, proximal stump
  quantitative recovery in myelin density: 1.60
[3]; GPI 1046 through the first 28 days after transection
  myelin levels, distal stump: ~99 % of normal levels
[3]; ONT/14 days GPI 1046
  Proximal optic nerve myelin basic protein Density: did not alter the pattern of myelin degeneration
  increased ON axon density: 1.5 X
  Distal optic nerve stump shrinkage: did not protect against shrinkage of the distal stump
  Distal optic nerve myelin basic protein Density: slightly increase the density of myelin
[3]; ONT/28 days GPI 1046
  Proximal optic nerve myelin basic protein Density: prevents myelin degeneration in the proximal stump
  increased ON axon density: 5.0 X
  Distal optic nerve stump shrinkage: prevented cross sectional shrinkage of the distal stump
  Distal optic nerve myelin basic protein Density: prevents myelin degeneration in the distal stump
Retinal ganglion cells [4]; 90 days after transection
  axons of protected neurons in the proximal stump (RT97): preserved the axons of virtually all protected neurons
Retinal ganglion cells [4]; sacrificed 90 days after transection
  ganglion cell population spared: 25%
Retinal ganglion cells [5]; GPI 1046 10 mg/kg s.c. 1 hour prior to ischemia and 10 mg/kg/day for next four days, 28 days after ischemia
  protection of retinal ganglion cells (fluorogold labeled) against degeneration: noticeable protection of a large proportion of the vulnerable ganglion cell population; also recorded: protects retinal ganglion cells against degeneration
Retinal ganglion cells [5]; same retinal ischemia cases, 28 days after 1 hour ischemic episode
  density of degenerating myelin figures: dramatically decreased
Retinal ganglion cells [5]; same retinal ischemia cases, 28 days after 1 hour ischemic episode, toluidine blue staining
  degeneration of optic nerve axons: protected the majority of optic nerve axons from degeneration; also recorded: prevents degeneration of optic nerve axons and myelin
retina; 28 day GPI 1046 treatment beginning 8 weeks after onset of diabetes, compared to streptozotocin/vehicle
  loss of neurons in the INL and GCL: protects neurons in the inner nuclear layer (INL) and ganglion cell layer (GCL) from degeneration
retina; 28 day GPI 1046 treatment beginning 8 weeks after onset of streptozotocin induced diabetes
  neovascularization in the retina (PR, ONL, OPL, INL): reduced neovascularization; also recorded: decreases the extent of neovascularization
[6]
  latency, hot plate and tail flick: improvement in latency
[7]
  spatial memory performance (swim distance), retention testing: no longer any statistically significant difference
